Patent publication US11472798B2 (Mission Therapeutics Limited, priority 2014, dated 2022)

Target: T1, UCHL1 (Homo sapiens, UniProt P09936)
T1 construct: made in house; host or cells: HEK293T
T1 sequence (P09936 1-223): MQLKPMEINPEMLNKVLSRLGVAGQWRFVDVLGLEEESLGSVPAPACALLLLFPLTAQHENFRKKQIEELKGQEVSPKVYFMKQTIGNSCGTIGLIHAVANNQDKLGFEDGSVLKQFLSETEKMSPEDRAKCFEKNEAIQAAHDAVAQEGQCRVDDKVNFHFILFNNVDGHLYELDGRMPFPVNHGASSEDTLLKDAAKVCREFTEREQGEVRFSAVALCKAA
Assay: UCHL1 biochemical IC50 assay (fluorescence polarisation)
Conditions: 30 min enzyme/compound pre-incubation at room temp, read after 2 hr incubation, read-out: Activity range (UCHL1 biochemical IC50 assay)
Method in brief: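 Fluorescence polarisation (ex 540/em 590 nm) of 50 nM TAMRA-labelled ubiquitin–peptide isopeptide substrate was read at time zero and after 2 h at room temperature. Compounds (100–0.03 μM final, in duplicate) were given 30 min preincubation with N-FLAG UCHL1 from HEK293T cells in pH 7.5 Tris buffer.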

| SMILES | IC50 [nM] |
| --- | --- |
| N#CN1CC[C@H](C(=O)Nc2cc3cc(-c4cn[nH]c4C(F)(F)F)ccc3cn2)C1 [Example 289, (S)-1-cyano-N-(6-(5-(trifluoromethyl)-1H-pyrazol-4-yl)isoquinolin-3-yl)pyrrolidine-3-carboxamide] | < 1000 |
| Cc1nc(-c2ccc3nc(NC(=O)[C@H]4CCN(C#N)C4)cn3c2)no1 [Example 209, (S)-1-cyano-N-(6-(5-methyl-1,2,4-oxadiazol-3-yl)imidazo[1,2-a]pyridin-2-yl)pyrrolidine-3-carboxamide] | < 1000 |
| N#CN1CC[C@H](C(=O)Nc2cn3ccccc3n2)C1 [Example 49, (S)-1-cyano-N-N-(imidazo[1,2-a]pyridin-2-yl)-pyrrolidine-3-carboxamide] | 1000 to 10000 |
| COC1(C(=O)Nc2ncc(-c3ccccc3)s2)CCN(C#N)C1 (centres unmarked) [Example 284, 1-cyano-3-methoxy-N-(5-phenylthiazol-2-yl)pyrrolidine-3-carboxamide] | < 1000 |
| Cc1nn(C)c2ccc(-n3cnc(NC(=O)[C@H]4CCN(C#N)C4)c3)cc12 [Example 298, (S)-1-cyano-N-(1-(1,3-dimethyl-1H-indazol-5-yl)-1H-imidazol-4-yl)pyrrolidine-3-carboxamide] | < 1000 |
| CC1CC(C(=O)Nc2cc(-c3ccccc3)[nH]n2)CN1C#N (mixture of isomers) [Example 90, 1-cyano-5-methyl-N-(5-phenyl-1H-pyrazol-3-yl)pyrrolidine-3-carboxamide] | 10000 to 30000 |
| N#CN1CC[C@H](C(=O)Nc2cc(-c3ccccc3)cnn2)C1 [Example 275, (S)-1-cyano-N-(5-phenylpyridazin-3-yl)pyrrolidine-3-carboxamide] | 1000 to 10000 |
| N#CN1CC[C@H](C(=O)Nc2cn(C3CCc4ccccc43)cn2)C1 (some centres unmarked) [Example 163] | < 1000 |
| CS(=O)(=O)N1CCc2nc(NC(=O)[C@H]3CCN(C#N)C3)sc2C1 [Example 202, (S)-1-cyano-N-(5-(methylsulfonyl)-4,5,6,7-tetrahydrothiazolo[5,4-c]pyridin-2-yl)pyrrolidine-3-carboxamide] | < 1000 |
| N#Cc1ccc(-n2cnc(NC(=O)[C@H]3CCN(C#N)C3)c2)cc1OC(F)(F)F [Example 310, (S)-1-cyano-N-(1-(4-cyano-3-(trifluoromethoxy)phenyl)-1H-imidazol-4-yl)pyrrolidine-3-carboxamide] | < 1000 |
| COC[C@@H]1CCCN1c1cnc(NC(=O)[C@H]2CCN(C#N)C2)s1 [Example 100, (S)-1-cyano-N-(5-((S)-2-(methoxymethyl)pyrrolidin-1-yl)thiazol-2-yl)pyrrolidine-3-carboxamide] | < 1000 |
| C[C@H]1[C@@H](C(=O)Nc2cn(Cc3ccccc3)cn2)CCN1C#N [Example 149, (2S,3S)—N-(1-benzyl-1H-imidazol-4-yl)-1-cyano-2-methylpyrrolidine-3-carboxamide] | < 1000 |
| CC(=O)N1CCc2nc(NC(=O)[C@H]3CCN(C#N)C3)sc2C1 [Example 189, (S)—N-(5-acetyl-4,5,6,7-tetrahydrothiazolo[5,4-c]pyridin-2-yl)-1-cyanopyrrolidine-3-carboxamide] | < 1000 |
| N#CN1CC[C@H](C(=O)Nc2cn(CC3CCOCC3)cn2)C1 [Example 165, (S)-1-cyano-N-(1-((tetrahydro-2H-pyran-4-yl)methyl)-1H-imidazol-4-yl)pyrrolidine-3-carboxamide] | 1000 to 10000 |
| N#CN1CC[C@H](C(=O)Nc2cn(-c3cccc4[nH]ncc34)cn2)C1 [Example 303, (S)-N-(1-(1H-indazol-4-yl)-1H-imidazol-4-yl)-1-cyanopyrrolidine-3-carboxamide] | < 1000 |
| N#CN1CC[C@H](C(=O)Nc2cc(-c3cccc4[nH]ncc34)ccn2)C1 [Example 262, (S)—N-(4-(1H-indazol-4-yl)pyridin-2-yl)-1-cyanopyrrolidine-3-carboxamide] | < 1000 |
| N#CN1CCC(C(=O)Nc2ccc(-c3ccccc3)nn2)C1 (centres unmarked) [Example 36, 1-cyano-N-(6-phenyl-pyridazin-3-yl)pyrrolidine-3-carboxamide] | 10000 to 30000 |
| COCC1(C(=O)Nc2ncc(-c3ccccc3)s2)CCN(C#N)C1 (centres unmarked) [Example 80, I-cyano-3-(methoxymethyl)-N-(5-phenylthiazol-2-yl)pyrrolidine-3-carboxamide] | 10000 to 30000 |
| N#CN1CC[C@H](C(=O)Nc2cn(C3CCCN(C(=O)c4ccccc4)C3)cn2)C1 (stereo partly drawn) [Example 184, (3S)—N-(1-(1-benzoylpiperidin-3-yl)-1H-imidazol-4-yl)-1-cyanopyrrolidine-3-carboxamide] | < 1000 |
| N#CN1CCC(C(=O)Nc2nc3ccccc3[nH]2)C1 (centres unmarked) [Example 23, N-(1H-benzo[d]imidazol-2-yl)-1-cyano-pyrrolidine-3-carboxamide] | 10000 to 30000 |

Next, values leading:

| IC50 [nM] | SMILES |
| --- | --- |
| < 1000 | Cc1n[nH]c(C)c1-c1ccc2nc(NC(=O)[C@H]3CCN(C#N)C3)sc2c1 [Example 125, (S)-1-cyano-N-(6-(3,5-dimethyl-1H-pyrazol-4-yl)benzo[d]thiazol-1-2-yl)pyrrolidine-3-carboxamide] |
| < 1000 | C[C@H]1[C@@H](C(=O)Nc2ncc(-c3ccc(F)cc3)s2)CCN1C#N [Example 73, (2S,3S)-1-cyano-N-(5-(4-fluorophenyl)thiazol-2-yl)-2-methylpyrrolidine-3-carboxamide] |
| < 1000 | N#CN1CC[C@H](C(=O)Nc2ncc(-c3ccc(S(N)(=O)=O)cc3)s2)C1 [Example 221, (S)-1-cyano-N-(5-(4-sulfamoylphenyl)thiazol-2-yl)pyrrolidine-3-carboxamide] |
| < 1000 | C#CCNC(=O)c1cc(-c2cnc(NC(=O)[C@H]3CCN(C#N)C3)s2)ccc1Cl [Example 239, (S)-N-(5-(4-chloro-3-(prop-2-yn-1-ylcarbarmoyl)phenyl)thiazol-2-yl)-1-cyanopyrrolidine-3-carboxamide] |
| < 1000 | N#CN1CC[C@H](C(=O)Nc2ncc(Cc3ccccc3)s2)C1 [Example 57, (S)-N-(5-benzylthiazol-2-yl)-1-cyanopyrrolidine-3-carboxamide] |
| 1000 to 10000 | C[C@@H]1CN(C#N)C[C@H]1C(=O)Nc1ncc(-c2ccccc2Cl)s1 (racemic) [Example 84, (±)-trans-N-(5-(2-chlorophenyl)thiazol-2-yl)-1-cyano-4-methylpyrrolidine-3-carboxamide] |
| < 1000 | N#CN1CC[C@H](C(=O)Nc2ncc(-c3cccc4[nH]ncc34)s2)C1 [Example 230, (S)—N-(5-(1H-indazol-4-yl)thiazol-2-yl)-1-cyanopyrrolidine-3-carboxamide] |
| < 1000 | CNC(=O)c1ccc(-c2cnc(NC(=O)[C@H]3CCN(C#N)C3)s2)cc1 [Example 64, (S)-1-cyano-N-(5-(4-(methyl-carbamoyl)phenyl)thiazol-2-yl)pyrrolidine-3-carboxamide] |
| < 1000 | CNC(=O)c1cccc(-n2cnc(NC(=O)[C@H]3CCN(C#N)C3)c2)c1 [Example 156, (S)-1-cyano-N-(1-(3-(methylcarbamoyl)phenyl)-1H-imidazol-4-yl)pyrrolidine-3-carboxamide] |
| < 1000 | Cc1noc(C)c1-c1ccc2nc(NC(=O)[C@H]3CCN(C#N)C3)sc2c1 [Example 120, (S)-1-cyano-N-(6-(3,5-dimethylisoxazol-4-yl)benzo[d]thiazol-2-yl)pyrrolidine-3-carboxamide] |
| 1000 to 10000 | N#CN1CCC(C(=O)Nc2ccc(-c3ccncc3)cn2)C1 (centres unmarked) [Example 34, N-([3,4′-bipyridin]-6-yl)-1-cyano-pyrrolidine-3-carboxamide] |
| 1000 to 10000 | N#CN1CC[C@H](C(=O)Nc2ncc(N3CCc4ccccc4C3)s2)C1 [Example 98, (S)-1-cyano-N-(5-(3,4-dihydroisoquinolin-2(1H)-yl)thiazol-2-yl)pyrrolidine-3-carboxamide] |
| < 1000 | Cn1nccc1-c1ccc2nc(NC(=O)[C@H]3CCN(C#N)C3)sc2c1 [Example 123, (S)-1-cyano-N-(6-(1-methyl-1H-pyrazol-5-yl)benzo[d]thiazol-2-yl)pyrrolidine-3-carboxamide] |
| 1000 to 10000 | N#CN1CCC(C(=O)Nc2cc(-c3ccccc3)no2)C1 (centres unmarked) [Example 13] |
| 10000 to 30000 | Cc1cccc2sc(NC(=O)[C@H]3CCN(C#N)C3)nc12 [Example 46, (S)-1-cyano-N (4-methylbenzo[d]thiazol-2-yl)pyrrolidine-3-carboxamide] |
| < 1000 | N#CN1CC[C@H](C(=O)Nc2nc3ccc(-n4ccnn4)cc3s2)C1 [Example 62, (S)-N-(6-(1H-1,2,3-triazol-1-yl)benzo[d]thiazol-2-yl)-1-cyano-pyrrolidine-3-carboxamide] |
| 1000 to 10000 | Cc1[nH]ncc1-c1ccnc(NC(=O)[C@H]2CCN(C#N)C2)c1 [Example 295, (S)-1-cyano-N-(4-(5-methyl-1H-pyrazol-4-yl)pyridin-2-yl)pyrrolidine-3-carboxamide] |
| 10000 to 30000 | N#CN1CC[C@H](C(=O)Nc2ccc3cccnc3n2)C1 [Example 56, (S)-1-cyano-N-(1,8-naphthyridin-2-yl)pyrrolidine-3-carboxamide] |
| < 1000 | N#CN1CC[C@H](C(=O)Nc2ncc(-c3ccc4cn[nH]c4c3)s2)C1 [Example 222, (S)-N-(5-(1H-indazol-6-yl)-2-yl)-1-cyanopyrrolidine-3-carboxamide] |
| 10000 to 30000 | COc1ccc(NC(=O)C2CCN(C#N)C2)nc1 (centres unmarked) [Example 27, 1-cyano-N-(5-methoxy-pyridin-2-yl)pyrrolidine 3-carboxamide] |
| 1000 to 10000 | Cc1noc(C)c1-c1ccc2sc(NC(=O)C3CCN(C#N)C3)nc2c1 (centres unmarked) [Example 119, 1-cyano-N-(5-(3,5-dimethylisoxazol-4-yl)benzo[d]thiazol-2-yl)pyrrolidine-3-carboxamide] |
